For one experiment, the system named is Rodents. The conditions noted are these: injected intracerebroventricularly (ICV); NPY, ob/ob, agouti, fasted feeding models; cited from earlier work.
The subject of experiment [1] is male volunteers / patients with psychogenic erectile dysfunction. The conditions noted are these: cited from earlier work.
The next experiment addresses T1, cloned human MC4R (Homo sapiens, UniProt P32245).
T1 construct: made in house; host or cells: Hi5 insect cells (baculovirus infection); membrane preparation
The experiment in a line: Membrane binding assay: competitive inhibition of [125I]NDP-α-MSH binding. The conditions noted are these: for inhibition at 10 µM: read-out: Displacement Rate (%) (at 10 μM); for pIC50: read-out: MC4R IC50.

[2] abbreviates: intramuscular, 0.005-0.03 mg/kg, three normal male volunteers.
The mark [3] stands for this setting: subcutaneous, 0.025 mg/kg and 0.1 mg/kg, 10 patients with psychogenic erectile dysfunction.
Setting [4] is: at 10 μM, [125I]NDP-α-MSH displacement.

pIC50: −log10 of the molar value. Like-named read-outs stand apart in the source and are kept apart here. Some results are limits rather than exact numbers.

T1 sequence (P32245 whole entry): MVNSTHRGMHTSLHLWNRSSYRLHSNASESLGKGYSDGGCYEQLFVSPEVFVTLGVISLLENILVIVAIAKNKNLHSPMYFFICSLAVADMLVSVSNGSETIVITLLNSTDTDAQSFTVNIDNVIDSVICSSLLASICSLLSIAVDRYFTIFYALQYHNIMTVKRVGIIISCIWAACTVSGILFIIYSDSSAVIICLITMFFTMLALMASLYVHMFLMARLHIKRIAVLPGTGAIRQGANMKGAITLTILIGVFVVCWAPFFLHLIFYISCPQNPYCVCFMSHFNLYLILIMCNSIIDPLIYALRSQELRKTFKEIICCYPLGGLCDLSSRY

For the compound SHU-9119, the food intake result in the experiment on Rodents was “reverses this effect and can induce hyperphagia”.

In the case of MT-II, in experiment [1] (setting [2]), the penile erections result was “intermittent non-painful penile erections” and the “period of erections after dosing” value was 1 to 5 h. Also, in experiment [1] (setting [3]), the “onset of transient erections” value was 50 to 180 min and the “responders with transient erections” value is recorded as 8. Moreover, the food intake result in the experiment with Rodents is “reduced food intake”.

Take `N[C@@H](Cc1ccc(OCc2ccccc2)cc1)C(=O)N1CCCN(Cc2ccc(F)cc2)CC1` [Example 78]: the inhibition at 10 µM at cloned human MC4R (setting [4]) lay in the range of 35 to 70%. The pIC50 (in general, the negative decadic logarithm of the IC50, by convention in mol/L) on cloned human MC4R is under 5.52.

As for `N[C@@H](Cc1ccc(OCc2ccccc2)cc1)C(=O)N1CCN(Cc2ccc(Cl)cc2Cl)CC1` [Example 119], on cloned human MC4R (setting [4]), the inhibition at 10 µM is 71 to 90%. Besides, at cloned human MC4R, the negative-log IC50 (pIC50) was under 5.52.

Turning to `N[C@@H](Cc1ccc(-c2ccccc2C(F)(F)F)cc1)C(=O)N1CCN(Cc2cccc(Cl)c2Cl)CC1` [Example 315], the inhibition at 10 µM at cloned human MC4R (setting [4]) is 91 to 100%. In addition, the negative logarithm of the IC50 (pIC50) at cloned human MC4R was 5.52 to 5.82.

As for `N[C@@H](Cc1ccc(OCc2ccc3c(c2)OCO3)cc1)C(=O)N1CCN(Cc2cccc(Cl)c2Cl)CC1` [Example 235], the “Displacement Rate (%) (at 10 μM)” value at cloned human MC4R (setting [4]) is “+ (+ = 35-70)”. Further, on cloned human MC4R, the pIC50 is under 5.52.

As to `COc1cc(OC)c(CN2CCCN(C(=O)[C@@H](N)Cc3ccc(OCc4ccccc4)cc3)CC2)cc1Br` [Example 31], at cloned human MC4R (setting [4]), the inhibition at 10 µM was in the range of 71 to 90%. The pIC50 on cloned human MC4R was 5.52 to 5.82.

In the case of `N[C@@H](Cc1ccc(OCCc2cccc(OCc3ccccc3)c2)cc1)C(=O)N1CCN(Cc2cccc(Cl)c2Cl)CC1` [Example 250], at cloned human MC4R (setting [4]), the “Displacement Rate (%) (at 10 μM)” value is on record as “+++ (+++ = 91-100)”. For the same compound, on cloned human MC4R, the pIC50 was over 5.82.

With `N[C@@H](Cc1ccc(OCc2ccccc2)cc1)C(=O)N1CCN(Cc2c(F)cccc2F)CC1` [Example 142], the inhibition at 10 µM on cloned human MC4R (setting [4]) lay in the range of 35 to 70%. Besides, the negative logarithm of the IC50 (pIC50) on cloned human MC4R was under 5.52.

Turning to `N[C@@H](Cc1ccc(-c2cccc3cccnc23)cc1)C(=O)N1CCN(Cc2cccc(Cl)c2Cl)CC1` [Example 340], at cloned human MC4R, the inhibition at 10 µM is 71 to 90% and the pIC50 was 5.52 to 5.82.

Consider `N[C@@H](Cc1ccc(-c2ccc(C(F)(F)F)cc2)cc1)C(=O)N1CCN(Cc2cccc(Cl)c2Cl)CC1` [Example 304], for which the inhibition at 10 µM on cloned human MC4R (setting [4]) was in the range of 91 to 100%. Besides, at cloned human MC4R, the negative logarithm of the IC50 (pIC50) was over 5.82.

On to `N[C@@H](Cc1ccc(-c2ccc(Cl)cc2Cl)cc1)C(=O)N1CCN(Cc2cccc(Cl)c2Cl)CC1` [Example 307], for which the inhibition at 10 µM on cloned human MC4R (setting [4]) was 91 to 100%. Moreover, the negative logarithm of the IC50 (pIC50) at cloned human MC4R was over 5.82.

For `CC(C)(C)c1ccc(COc2ccc(C[C@H](N)C(=O)N3CCN(Cc4cccc(Cl)c4Cl)CC3)cc2)cc1` [Example 201], the “Displacement Rate (%) (at 10 μM)” value at cloned human MC4R (setting [4]) is on record as “+++ (+++ = 91-100)”. On cloned human MC4R, the pIC50 is over 5.82.

Regarding `N[C@@H](Cc1ccc(OCCc2ccc3ccccc3c2)cc1)C(=O)N1CCN(Cc2cccc(Cl)c2Cl)CC1` [Example 256], the “Displacement Rate (%) (at 10 μM)” value on cloned human MC4R (setting [4]) is on record as “+++ (+++ = 91-100)”. The negative logarithm of the IC50 (pIC50) at cloned human MC4R is over 5.82.

For the compound `COc1cc(CN2CCCN(C(=O)[C@@H](N)Cc3ccc(OCc4ccccc4)cc3)CC2)ccc1OCc1ccc([N+](=O)[O-])cc1` [Example 15], at cloned human MC4R (setting [4]), the inhibition at 10 µM is 91 to 100%. For the same compound, the pIC50 at cloned human MC4R is 5.52 to 5.82.

On to `N[C@@H](Cc1ccc(-c2ccc(F)c(Cl)c2)cc1)C(=O)N1CCN(Cc2cccc(Cl)c2Cl)CC1` [Example 306], for which the inhibition at 10 µM at cloned human MC4R (setting [4]) lay within 91 to 100%. The pIC50 at cloned human MC4R is over 5.82.

On to `N[C@@H](Cc1ccc(OCc2ccccc2)cc1)C(=O)N1CCN(C2CCN(Cc3ccccc3)CC2)CC1` [Example 155], for which, on cloned human MC4R (setting [4]), the inhibition at 10 µM lay within 35 to 70%. For the same compound, the negative logarithm of the IC50 (pIC50) at cloned human MC4R is under 5.52.

Turning to `N[C@@H](Cc1ccc(-c2ccc(Oc3ccccc3)cc2)cc1)C(=O)N1CCN(Cc2cccc(Cl)c2Cl)CC1` [Example 302], the inhibition at 10 µM at cloned human MC4R (setting [4]) is 91 to 100%. In addition, at cloned human MC4R, the pIC50 was over 5.82.

As for `N[C@@H](Cc1ccc(OCCCCc2ccccc2)cc1)C(=O)N1CCN(Cc2cccc(Cl)c2Cl)CC1` [Example 262], the “Displacement Rate (%) (at 10 μM)” value on cloned human MC4R (setting [4]) is on record as “+++ (+++ = 91-100)”. Also, on cloned human MC4R, the negative-log IC50 (pIC50) was over 5.82.

For `N[C@@H](Cc1ccc(OCc2ccc(Br)cc2)cc1)C(=O)N1CCN(Cc2cccc(Cl)c2Cl)CC1` [Example 186], the “Displacement Rate (%) (at 10 μM)” value at cloned human MC4R (setting [4]) is reported as “+++ (+++ = 91-100)”. The pIC50 at cloned human MC4R is over 5.82.

Regarding `Cc1ccc(Oc2ccc(C[C@H](N)C(=O)N3CCN(Cc4cccc(Cl)c4Cl)CC3)cc2)cc1` [Example 345], the negative logarithm of the IC50 (pIC50) at cloned human MC4R is over 5.82.

Consider `COc1ccc(CC(C)N2CCCN(C(=O)[C@@H](N)Cc3ccc(OCc4ccccc4)cc3)CC2)cc1` (some centres unmarked) [Example 67], for which, on cloned human MC4R (setting [4]), the inhibition at 10 µM was 35 to 70%. Besides, the negative logarithm of the IC50 (pIC50) at cloned human MC4R is under 5.52.

As for `N[C@@H](Cc1ccc(OCc2cccc(Br)c2)cc1)C(=O)N1CCN(Cc2cccc(Cl)c2Cl)CC1` [Example 197], the “Displacement Rate (%) (at 10 μM)” value on cloned human MC4R (setting [4]) is “+++ (+++ = 91-100)”. The negative logarithm of the IC50 (pIC50) at cloned human MC4R is over 5.82.

`COc1cc(COc2ccc(C[C@H](N)C(=O)N3CCN(Cc4cccc(Cl)c4Cl)CC3)cc2)cc(OC)c1OC` [Example 236]: the “Displacement Rate (%) (at 10 μM)” value on cloned human MC4R (setting [4]) is on record as “+ (+ = 35-70)”.

For the compound `N[C@@H](Cc1ccc(OCc2ccccc2)cc1)C(=O)N1CCCN(Cc2ccccc2Sc2ccc(Cl)cc2)CC1` [Example 2], the inhibition at 10 µM on cloned human MC4R (setting [4]) lay in the range of 91 to 100%. In addition, the negative logarithm of the IC50 (pIC50) on cloned human MC4R is 5.52 to 5.82.

Consider `CCCOc1ccc(CN2CCN(C(=O)[C@@H](N)Cc3ccc(OCc4ccccc4)cc3)CC2)cc1` [Example 126], for which the inhibition at 10 µM on cloned human MC4R (setting [4]) lay in the range of 71 to 90%. In addition, on cloned human MC4R, the pIC50 is 5.52 to 5.82.

Regarding `N[C@@H](Cc1ccc(OCc2ccccc2)cc1)C(=O)N1CCN(Cc2ccc(-c3ccccc3)cc2)CC1` [Example 95], the inhibition at 10 µM on cloned human MC4R (setting [4]) lay within 91 to 100%. Besides, the pIC50 on cloned human MC4R is over 5.82.

For the compound `N[C@@H](Cc1ccc(OCc2ccccc2)cc1)C(=O)N1CCN(Cc2cc(F)ccc2F)CC1` [Example 145], on cloned human MC4R (setting [4]), the inhibition at 10 µM lay within 35 to 70%. For the same compound, at cloned human MC4R, the pIC50 was under 5.52.

In the case of `N[C@@H](Cc1ccc(OCc2ccc(F)cc2F)cc1)C(=O)N1CCN(Cc2cccc(Cl)c2Cl)CC1` [Example 196], the “Displacement Rate (%) (at 10 μM)” value at cloned human MC4R (setting [4]) is listed as “+++ (+++ = 91-100)”. In addition, the negative-log IC50 (pIC50) on cloned human MC4R is over 5.82.

Consider `N[C@@H](Cc1ccc(OCc2cc(C(F)(F)F)cc(C(F)(F)F)c2)cc1)C(=O)N1CCN(Cc2cccc(Cl)c2Cl)CC1` [Example 199], for which the “Displacement Rate (%) (at 10 μM)” value at cloned human MC4R (setting [4]) was “+++ (+++ = 91-100)”. The pIC50 on cloned human MC4R was 5.52 to 5.82.

For `Cc1ccc(C)c(COc2ccc(C[C@H](N)C(=O)N3CCN(Cc4cccc(Cl)c4Cl)CC3)cc2)c1` [Example 202], the “Displacement Rate (%) (at 10 μM)” value at cloned human MC4R (setting [4]) is “+++ (+++ = 91-100)”. Moreover, the pIC50 at cloned human MC4R is 5.52 to 5.82.

`N[C@@H](Cc1ccc(OCc2ccccc2)cc1)C(=O)N1CCCN(Cc2cc(OCc3ccccc3)cc(OCc3ccccc3)c2)CC1` [Example 12]: at cloned human MC4R (setting [4]), the inhibition at 10 µM was 91 to 100%. The pIC50 on cloned human MC4R was over 5.82.

In the case of `CSc1ccc(CN2CCN(C(=O)[C@@H](N)Cc3ccc(OCc4ccccc4)cc3)CC2)cc1` [Example 125], the inhibition at 10 µM at cloned human MC4R (setting [4]) is 71 to 90%. At cloned human MC4R, the negative-log IC50 (pIC50) was 5.52 to 5.82.

As to `N[C@@H](Cc1ccc(OCc2ccc(F)cc2)cc1)C(=O)N1CCN(Cc2cccc(Cl)c2Cl)CC1` [Example 188], the “Displacement Rate (%) (at 10 μM)” value on cloned human MC4R (setting [4]) is reported as “+++ (+++ = 91-100)”. In addition, the negative logarithm of the IC50 (pIC50) at cloned human MC4R is over 5.82.
